Values after ≈ are worked out from the molar mass of the structure shown.
These compounds were tested on S. aureus ATCC 13709 (assay: MIC, S. aureus ATCC 13709). Conditions: S. aureus; Alamar Blue read after overnight incubation at 35° C.
Type: cell-based

Compound	MIC Sa [µg/mL]
CNc1cc(F)cc2c1[nH]c1nc(Oc3cnc(N)nc3)nc(N3CCC4(C[C@H]4N)C3)c12 (stereo partly drawn) [Compound 4.174]	≤0.5
CNc1cc(F)cc2c1[nH]c1nc(Oc3cncnc3)nc(N3CC4CCNC4C3)c12 (stereo not drawn) [Compound 4.020]	≤0.5
CNc1cc(F)c(F)c2c1[nH]c1nc(Oc3cncnc3)nc(N3CC4C(N)C4C3)c12 (stereo not drawn) [Compound 6.19]	>16
CNc1cc(F)cc2c1[nH]c1nc(Oc3cnc4ccoc4c3)nc(N3CC4CCC(N)C4C3)c12 (stereo not drawn) [Compound 4.293]	≤0.5
CNc1cc(F)cc2c1[nH]c1nc(Oc3cncc(Cl)c3)nc(N3CC4C(N)C4C3)c12 (stereo not drawn) [Compound 4.272]	≤0.5
CNc1cc(F)cc2c1[nH]c1nc(Oc3cnc(C)nc3)nc(N3C4CCC3CC(N)C4)c12 (stereo not drawn) [Compound 4.091]	≤0.5
CNc1cc(F)cc2c1[nH]c1nc(Oc3cnc(C)nc3)nc(-c3cncc(F)c3)c12 [Compound 4.417]	≤0.5
CNc1ncc(Oc2nc(N3CC[C@@H](N)C3)c3c(n2)[nH]c2c(NC)cc(F)cc23)cn1 [Compound 4.219]	≤0.5
CNc1cc(F)cc2c1[nH]c1nc(Oc3ccc4c(c3)C(=O)NC4)nc(N3CC4CCNC4C3)c12 (stereo not drawn) [Compound 4.269]	≤0.5
CNc1cc(F)cc2c1[nH]c1nc(Oc3ccc(C(C)=O)nc3)nc(N3CC4CCNC4C3)c12 (stereo not drawn) [Compound 4.309]	≤0.5
CNc1cc(F)cc2c1[nH]c1nc(Oc3cnc(N)nc3)nc(N3CC(NC(=O)CN)C4(CC4)C3)c12 (stereo not drawn) [Compound 4.182]	2 (≈ 4.06 µM)
CNc1cccc2c1[nH]c1nc(Sc3cnc4ccc[n+]([O-])c4c3)nc(N3CC4C(N)C4C3)c12 (stereo not drawn) [Compound 1.49]	≤0.5
COc1cccc2c1[nH]c1nc(Oc3cncnc3)nc(N3CC[C@@H](N)C3)c12 [Compound 2.10]	2 (≈ 5.3 µM)
CNc1cc(F)cc2c1[nH]c1nc(Oc3cnc(NCC(O)CO)nc3)nc(N3C[C@H](N)C4(CC4)C3)c12 (stereo partly drawn) [Compound 4.407]	2 (≈ 3.93 µM)
CNc1cc(F)cc2c1[nH]c1nc(Oc3cnc(N)nc3)nc(N3CC(N)C4(CC4)C3)c12 (stereo not drawn) [Compound 4.177]	≤0.5
CNc1cc(F)cc2c1[nH]c1nc(Oc3cncnc3)nc(N3CCC4(CC4N)C3)c12 (stereo not drawn) [Compound 4.003]	≤0.5
CNc1ncc(Oc2nc(N3CC4C(N)C4C3)c3c(n2)[nH]c2c(NC)cc(F)cc23)cn1 (stereo not drawn) [Compound 4.218]	≤0.5
CNc1cc(F)cc2c1[nH]c1nc(Oc3cnc(-c4nccn4C)nc3)nc(N3C[C@H](N)C4(CC4)C3)c12 [Compound 4.399]	≤0.5

Same assay, conditions: Staphylococcus aureus, ATCC13709, S. aureus; Alamar Blue read after overnight incubation at 35° C.; read-out: MIC Sa

Compound	MIC [µg/mL]
CNc1cc(F)cc2c1[nH]c1nc(Oc3cnc(OC)nc3)nc(N3C[C@H](N)C4(CC4)C3)c12 [Compound 4.433]	≤ 0.5
CNc1cc(F)cc2c1[nH]c1nc(Oc3cnc(C(C)O)nc3)nc(N3CC4(CC[C@H]4N)C3)c12 (stereo partly drawn) [Compound 4.430]	≤ 0.5
CNc1cccc2c1[nH]c1nc(Sc3cnc4ccc[n+]([O-])c4c3)nc(N3CC4C(C3)C4NC(=O)[C@H](C)N)c12 (stereo partly drawn) [Compound 1.52]	1 (≈ 1.85 µM)
CNc1ncnc2c1[nH]c1nc(Oc3cncc(F)c3)nc(N3CC(N)C4(CC4)C3)c12 (stereo not drawn) [Compound 7.06]	8 (≈ 19 µM)
CNc1cccc2c1[nH]c1nc(Oc3cncc(F)c3)cc(N3C[C@@H](NC)C4(CC4)C3)c12 [Compound 3.51]	8 (≈ 18.5 µM)
CNc1cccc2c1[nH]c1nc(Sc3cncc(S(=O)(=O)NC)c3)nc(N3CC4C(N)C4C3)c12 (stereo not drawn) [Compound 1.36]	2 (≈ 4.03 µM)
CNc1cc(F)cc2c1[nH]c1nc(Oc3cnc(C)nc3)nc(N3CC(N)C(C(=O)NCC(C)O)C3)c12 (stereo not drawn) [Compound 4.439]	8 (≈ 15.7 µM)
CNc1cccc2c1[nH]c1nc(Sc3cnc4ccc[n+]([O-])c4c3)nc(N3CC(CN)C3)c12 [Compound 1.20]	4 (≈ 8.72 µM)
CNc1cccc2c1[nH]c1nc(Sc3cncc(S(=O)(=O)N(C)C)c3)nc(N3CC4C(N)C4C3)c12 (stereo not drawn) [Compound 1.22]	1 (≈ 1.96 µM)

Each compound was assayed on E. coli ATCC 25922 (assay: MIC, E. coli ATCC 25922). Conditions: E. coli; Alamar Blue read after overnight incubation at 35° C.
Type: cell-based

Compound	MIC Ec [µg/mL]
CNc1cc(F)cc2c1[nH]c1nc(Oc3cnc(N)nc3)nc(N3CCC4(C[C@H]4N)C3)c12 (stereo partly drawn) [Compound 4.174]	≤0.5
CNc1cc(F)cc2c1[nH]c1nc(Oc3cncnc3)nc(N3CC4CCNC4C3)c12 (stereo not drawn) [Compound 4.020]	≤0.5
CNc1cc(F)c(F)c2c1[nH]c1nc(Oc3cncnc3)nc(N3CC4C(N)C4C3)c12 (stereo not drawn) [Compound 6.19]	>16
CNc1cc(F)cc2c1[nH]c1nc(Oc3cnc4ccoc4c3)nc(N3CC4CCC(N)C4C3)c12 (stereo not drawn) [Compound 4.293]	1 (≈ 2.11 µM)
CNc1cc(F)cc2c1[nH]c1nc(Oc3cncc(Cl)c3)nc(N3CC4C(N)C4C3)c12 (stereo not drawn) [Compound 4.272]	≤0.5
CNc1cc(F)cc2c1[nH]c1nc(Oc3cnc(C)nc3)nc(N3C4CCC3CC(N)C4)c12 (stereo not drawn) [Compound 4.091]	1 (≈ 2.23 µM)
CNc1cc(F)cc2c1[nH]c1nc(Oc3cnc(C)nc3)nc(-c3cncc(F)c3)c12 [Compound 4.417]	1 (≈ 2.38 µM)
CNc1ncc(Oc2nc(N3CC[C@@H](N)C3)c3c(n2)[nH]c2c(NC)cc(F)cc23)cn1 [Compound 4.219]	≤0.5
CNc1cc(F)cc2c1[nH]c1nc(Oc3ccc4c(c3)C(=O)NC4)nc(N3CC4CCNC4C3)c12 (stereo not drawn) [Compound 4.269]	4 (≈ 8.45 µM)
CNc1cc(F)cc2c1[nH]c1nc(Oc3ccc(C(C)=O)nc3)nc(N3CC4CCNC4C3)c12 (stereo not drawn) [Compound 4.309]	≤0.5
CNc1cc(F)cc2c1[nH]c1nc(Oc3cnc(N)nc3)nc(N3CC(NC(=O)CN)C4(CC4)C3)c12 (stereo not drawn) [Compound 4.182]	16 (≈ 32.5 µM)
CNc1cccc2c1[nH]c1nc(Sc3cnc4ccc[n+]([O-])c4c3)nc(N3CC4C(N)C4C3)c12 (stereo not drawn) [Compound 1.49]	≤0.5
COc1cccc2c1[nH]c1nc(Oc3cncnc3)nc(N3CC[C@@H](N)C3)c12 [Compound 2.10]	32 (≈ 84.8 µM)
CNc1cc(F)cc2c1[nH]c1nc(Oc3cnc(NCC(O)CO)nc3)nc(N3C[C@H](N)C4(CC4)C3)c12 (stereo partly drawn) [Compound 4.407]	>16
CNc1cc(F)cc2c1[nH]c1nc(Oc3cnc(N)nc3)nc(N3CC(N)C4(CC4)C3)c12 (stereo not drawn) [Compound 4.177]	≤0.5
CNc1cc(F)cc2c1[nH]c1nc(Oc3cncnc3)nc(N3CCC4(CC4N)C3)c12 (stereo not drawn) [Compound 4.003]	≤0.5
CNc1ncc(Oc2nc(N3CC4C(N)C4C3)c3c(n2)[nH]c2c(NC)cc(F)cc23)cn1 (stereo not drawn) [Compound 4.218]	≤0.5
CNc1cc(F)cc2c1[nH]c1nc(Oc3cnc(-c4nccn4C)nc3)nc(N3C[C@H](N)C4(CC4)C3)c12 [Compound 4.399]	2 (≈ 4 µM)

Same assay, conditions: Escherichia coli, ATCC25922, E. coli; Alamar Blue read after overnight incubation at 35° C.; read-out: MIC Ec

Compound	MIC [µg/mL]
CNc1cc(F)cc2c1[nH]c1nc(Oc3cnc(OC)nc3)nc(N3C[C@H](N)C4(CC4)C3)c12 [Compound 4.433]	≤ 0.5
CNc1cc(F)cc2c1[nH]c1nc(Oc3cnc(C(C)O)nc3)nc(N3CC4(CC[C@H]4N)C3)c12 (stereo partly drawn) [Compound 4.430]	≤ 0.5
CNc1cccc2c1[nH]c1nc(Sc3cnc4ccc[n+]([O-])c4c3)nc(N3CC4C(C3)C4NC(=O)[C@H](C)N)c12 (stereo partly drawn) [Compound 1.52]	16 (≈ 29.5 µM)
CNc1ncnc2c1[nH]c1nc(Oc3cncc(F)c3)nc(N3CC(N)C4(CC4)C3)c12 (stereo not drawn) [Compound 7.06]	64 (≈ 152 µM)
CNc1cccc2c1[nH]c1nc(Oc3cncc(F)c3)cc(N3C[C@@H](NC)C4(CC4)C3)c12 [Compound 3.51]	32 (≈ 74 µM)
CNc1cccc2c1[nH]c1nc(Sc3cncc(S(=O)(=O)NC)c3)nc(N3CC4C(N)C4C3)c12 (stereo not drawn) [Compound 1.36]	4 (≈ 8.05 µM)
CNc1cc(F)cc2c1[nH]c1nc(Oc3cnc(C)nc3)nc(N3CC(N)C(C(=O)NCC(C)O)C3)c12 (stereo not drawn) [Compound 4.439]	> 16
CNc1cccc2c1[nH]c1nc(Sc3cnc4ccc[n+]([O-])c4c3)nc(N3CC(CN)C3)c12 [Compound 1.20]	16 (≈ 34.9 µM)
CNc1cccc2c1[nH]c1nc(Sc3cncc(S(=O)(=O)N(C)C)c3)nc(N3CC4C(N)C4C3)c12 (stereo not drawn) [Compound 1.22]	8 (≈ 15.7 µM)

From patent US10865216B2, “Tricyclic Gyrase inhibitors” (MERCK SHARP & DOHME CORP., priority 2012, dated 2020)
